Assay [1] concerns the target T1, TGF-beta-activated kinase 1 and MAP3K7-binding protein 1 (Homo sapiens) (UniProt Q15750).
T1 sequence (whole entry): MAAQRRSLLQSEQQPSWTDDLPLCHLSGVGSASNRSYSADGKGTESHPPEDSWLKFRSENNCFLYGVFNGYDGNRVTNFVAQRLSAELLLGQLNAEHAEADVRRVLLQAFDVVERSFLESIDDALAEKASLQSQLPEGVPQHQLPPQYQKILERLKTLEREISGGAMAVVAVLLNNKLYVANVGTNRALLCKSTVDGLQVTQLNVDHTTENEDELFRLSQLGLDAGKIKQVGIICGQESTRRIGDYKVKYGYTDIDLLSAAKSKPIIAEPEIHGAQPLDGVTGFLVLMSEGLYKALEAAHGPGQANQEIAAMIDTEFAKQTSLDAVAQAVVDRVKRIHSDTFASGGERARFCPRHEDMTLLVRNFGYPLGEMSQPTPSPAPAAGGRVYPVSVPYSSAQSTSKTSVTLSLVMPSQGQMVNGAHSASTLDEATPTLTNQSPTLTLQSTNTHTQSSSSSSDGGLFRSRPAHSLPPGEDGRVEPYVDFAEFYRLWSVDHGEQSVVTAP
The experiment in a line: Inhibition of MAP3K7-TAB1 (unknown origin) at 5.5 uM by Caliper Mobility Shift Assay.

For assay [2], the target named is Receptor-type tyrosine-protein kinase FLT3 (Homo sapiens) (UniProt P36888). Put plainly: Inhibition of FLT3 (unknown origin) at 5.5 uM by Caliper Mobility Shift Assay.
Sequence of Receptor-type tyrosine-protein kinase FLT3 (Homo sapiens) (P36888 whole entry): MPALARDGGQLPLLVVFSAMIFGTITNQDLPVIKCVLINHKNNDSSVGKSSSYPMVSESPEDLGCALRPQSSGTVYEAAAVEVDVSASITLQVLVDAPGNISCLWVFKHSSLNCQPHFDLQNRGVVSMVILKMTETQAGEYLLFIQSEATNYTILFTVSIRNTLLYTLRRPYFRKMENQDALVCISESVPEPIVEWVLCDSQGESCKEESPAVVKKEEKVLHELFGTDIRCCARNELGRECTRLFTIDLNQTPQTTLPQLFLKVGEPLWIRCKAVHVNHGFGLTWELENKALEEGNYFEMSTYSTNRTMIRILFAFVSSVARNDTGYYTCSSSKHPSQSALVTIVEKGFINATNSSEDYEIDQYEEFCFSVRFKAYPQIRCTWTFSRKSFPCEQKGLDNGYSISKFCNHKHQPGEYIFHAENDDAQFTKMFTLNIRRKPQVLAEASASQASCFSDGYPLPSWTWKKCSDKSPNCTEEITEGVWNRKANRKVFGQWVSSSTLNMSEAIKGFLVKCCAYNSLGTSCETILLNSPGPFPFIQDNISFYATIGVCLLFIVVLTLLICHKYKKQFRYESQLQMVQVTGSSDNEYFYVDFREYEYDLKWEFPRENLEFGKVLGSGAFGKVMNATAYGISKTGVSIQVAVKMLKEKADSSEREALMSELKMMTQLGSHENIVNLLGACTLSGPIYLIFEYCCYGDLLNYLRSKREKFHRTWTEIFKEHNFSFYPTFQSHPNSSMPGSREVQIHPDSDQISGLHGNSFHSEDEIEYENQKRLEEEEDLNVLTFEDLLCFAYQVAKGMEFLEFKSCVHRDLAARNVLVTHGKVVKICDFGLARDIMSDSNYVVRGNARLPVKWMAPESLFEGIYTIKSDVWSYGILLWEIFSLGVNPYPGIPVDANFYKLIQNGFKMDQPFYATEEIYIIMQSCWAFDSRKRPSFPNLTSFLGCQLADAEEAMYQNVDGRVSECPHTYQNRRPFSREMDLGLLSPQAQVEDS
In assay [3] the target is Interleukin-1 receptor-associated kinase 1 (Homo sapiens) (UniProt P51617). The experiment in a line: Inhibition of IRAK1 (unknown origin) at 5.5 uM by Caliper Mobility Shift Assay.
Sequence of Interleukin-1 receptor-associated kinase 1 (Homo sapiens) (P51617 whole entry, looked up): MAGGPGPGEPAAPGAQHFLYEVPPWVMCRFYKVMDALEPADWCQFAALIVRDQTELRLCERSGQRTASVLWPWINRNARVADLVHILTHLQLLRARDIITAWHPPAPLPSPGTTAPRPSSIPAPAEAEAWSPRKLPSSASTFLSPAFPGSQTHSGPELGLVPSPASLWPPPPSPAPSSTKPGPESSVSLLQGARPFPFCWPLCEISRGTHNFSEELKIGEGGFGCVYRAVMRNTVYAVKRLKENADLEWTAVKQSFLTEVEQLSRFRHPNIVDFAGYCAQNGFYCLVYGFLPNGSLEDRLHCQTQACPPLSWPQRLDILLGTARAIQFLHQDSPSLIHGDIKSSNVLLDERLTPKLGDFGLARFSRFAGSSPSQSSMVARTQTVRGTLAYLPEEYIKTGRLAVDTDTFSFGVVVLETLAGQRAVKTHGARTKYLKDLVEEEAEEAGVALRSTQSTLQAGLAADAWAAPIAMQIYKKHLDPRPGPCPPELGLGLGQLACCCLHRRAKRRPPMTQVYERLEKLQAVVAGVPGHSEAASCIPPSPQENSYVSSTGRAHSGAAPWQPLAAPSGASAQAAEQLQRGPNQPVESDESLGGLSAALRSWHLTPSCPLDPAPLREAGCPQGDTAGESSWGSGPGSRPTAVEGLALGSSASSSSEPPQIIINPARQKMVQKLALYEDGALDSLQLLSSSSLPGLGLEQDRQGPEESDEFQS
In assay [4] the target is Serine/threonine-protein kinase PAK 2 (Homo sapiens) (UniProt Q13177). Put plainly: Inhibition of PAK2 (unknown origin) at 5.5 uM by Caliper Mobility Shift Assay.
Sequence of Serine/threonine-protein kinase PAK 2 (Homo sapiens) (Q13177 whole entry): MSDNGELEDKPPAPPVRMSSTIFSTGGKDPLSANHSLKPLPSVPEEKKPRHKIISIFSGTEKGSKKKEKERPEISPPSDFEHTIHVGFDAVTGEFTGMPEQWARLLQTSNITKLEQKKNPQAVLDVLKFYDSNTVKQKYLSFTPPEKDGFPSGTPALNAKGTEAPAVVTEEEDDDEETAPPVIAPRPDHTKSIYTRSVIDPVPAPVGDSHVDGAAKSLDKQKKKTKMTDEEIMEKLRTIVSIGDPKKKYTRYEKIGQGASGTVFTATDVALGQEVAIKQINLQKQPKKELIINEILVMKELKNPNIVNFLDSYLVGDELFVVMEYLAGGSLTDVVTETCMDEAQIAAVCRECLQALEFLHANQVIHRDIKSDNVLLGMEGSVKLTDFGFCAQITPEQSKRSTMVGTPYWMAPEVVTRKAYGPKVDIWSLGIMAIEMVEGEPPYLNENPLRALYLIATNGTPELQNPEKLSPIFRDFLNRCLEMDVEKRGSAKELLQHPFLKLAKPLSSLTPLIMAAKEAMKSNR
The target of assay [5] is Epidermal growth factor receptor (Homo sapiens) (UniProt P00533). The experiment in a line: Inhibition of EGFR (unknown origin) assessed as phosphorylation of ATF-2 at 5.5 uM by ELISA. Background: In an ELISA, binding on a coated surface is turned into a signal by an enzyme label.
Sequence of Epidermal growth factor receptor (Homo sapiens) (P00533 whole entry): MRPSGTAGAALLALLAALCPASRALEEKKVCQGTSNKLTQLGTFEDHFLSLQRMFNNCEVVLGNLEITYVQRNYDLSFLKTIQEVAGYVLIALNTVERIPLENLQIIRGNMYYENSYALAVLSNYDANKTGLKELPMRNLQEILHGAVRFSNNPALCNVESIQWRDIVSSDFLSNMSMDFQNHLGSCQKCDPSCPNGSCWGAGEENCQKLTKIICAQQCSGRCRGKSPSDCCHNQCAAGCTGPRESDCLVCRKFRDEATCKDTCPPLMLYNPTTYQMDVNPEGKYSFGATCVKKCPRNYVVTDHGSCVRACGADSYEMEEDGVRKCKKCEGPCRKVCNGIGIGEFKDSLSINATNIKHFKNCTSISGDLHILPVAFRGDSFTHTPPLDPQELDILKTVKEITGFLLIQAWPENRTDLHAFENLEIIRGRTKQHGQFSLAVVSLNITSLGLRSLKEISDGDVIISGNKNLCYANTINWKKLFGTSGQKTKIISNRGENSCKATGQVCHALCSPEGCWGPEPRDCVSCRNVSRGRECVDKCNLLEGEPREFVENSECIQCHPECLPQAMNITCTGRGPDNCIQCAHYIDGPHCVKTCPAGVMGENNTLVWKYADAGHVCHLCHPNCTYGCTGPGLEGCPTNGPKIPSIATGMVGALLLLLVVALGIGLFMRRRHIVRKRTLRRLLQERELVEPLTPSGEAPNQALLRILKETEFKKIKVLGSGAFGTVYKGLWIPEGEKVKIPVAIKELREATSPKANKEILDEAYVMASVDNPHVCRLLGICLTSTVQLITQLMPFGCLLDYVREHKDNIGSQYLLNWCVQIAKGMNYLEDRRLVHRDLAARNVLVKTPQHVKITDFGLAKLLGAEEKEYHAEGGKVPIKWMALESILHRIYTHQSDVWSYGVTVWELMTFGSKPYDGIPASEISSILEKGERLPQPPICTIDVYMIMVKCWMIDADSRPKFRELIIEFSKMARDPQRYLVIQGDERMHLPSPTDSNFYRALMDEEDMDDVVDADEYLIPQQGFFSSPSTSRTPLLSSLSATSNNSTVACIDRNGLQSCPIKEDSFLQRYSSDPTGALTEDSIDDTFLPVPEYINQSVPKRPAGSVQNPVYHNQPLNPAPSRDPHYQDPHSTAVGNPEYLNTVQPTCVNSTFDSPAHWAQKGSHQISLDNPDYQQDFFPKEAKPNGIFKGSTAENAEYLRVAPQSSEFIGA
The target in assay [6] is T2, Activin receptor type-1 (Homo sapiens) (UniProt Q04771).
T2 sequence (whole entry): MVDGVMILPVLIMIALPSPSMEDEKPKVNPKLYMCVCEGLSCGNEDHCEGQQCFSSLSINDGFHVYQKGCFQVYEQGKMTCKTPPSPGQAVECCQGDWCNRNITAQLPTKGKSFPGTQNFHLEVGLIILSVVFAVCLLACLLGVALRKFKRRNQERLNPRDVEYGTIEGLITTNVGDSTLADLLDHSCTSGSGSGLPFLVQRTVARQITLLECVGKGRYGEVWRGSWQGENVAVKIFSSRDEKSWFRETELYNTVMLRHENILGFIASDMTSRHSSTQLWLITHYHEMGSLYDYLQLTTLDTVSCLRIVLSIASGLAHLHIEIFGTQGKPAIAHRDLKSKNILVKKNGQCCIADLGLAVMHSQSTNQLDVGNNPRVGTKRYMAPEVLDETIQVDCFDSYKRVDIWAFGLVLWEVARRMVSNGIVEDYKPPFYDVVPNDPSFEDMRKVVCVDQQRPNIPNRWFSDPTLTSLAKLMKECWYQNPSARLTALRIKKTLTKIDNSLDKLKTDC
Put plainly: Inhibition of ALK2 (unknown origin) assessed as phosphorylation of ATF-2 at 5.5 uM by ELISA.

SMILES strings stand for the structures.

The values that follow come from ChEMBL document CHEMBL3393036, “Tetra-substituted pyridinylimidazoles as dual inhibitors of p38α mitogen-activated protein kinase and c-Jun N-terminal kinase 3 for potential treatment of neurodegenerative diseases” (J Med Chem, 2015).

By inhibition is commonly meant the percentage by which the read-out fell short of the control.

Regarding `CC(=O)Nc1cc(-c2c(-c3ccc(F)cc3)nc(S/C=C\C(=O)O)n2CC2CCCO2)ccn1` (racemic), the inhibition in assay [1], in assay [2], in assay [3] and in assay [4] was below 50% in each case.
In the case of `CC(=O)Nc1cc(-c2c(-c3ccc(F)cc3)nc(S/C=C\C(=O)O)n2C2CC2)ccn1`, the inhibition in assay [1] was below 50%; in assay [2], below 50%; in assay [5], 51.8%; in assay [3] it was below 50%; in assay [4], below 50%; in assay [6], 60.6%.
`COC(Cn1c(SC2CCC(C(=O)O)CC2O)nc(-c2ccc(F)cc2)c1-c1ccnc(NC(C)=O)c1)OC` (configuration not stated): the inhibition in assay [1], in assay [2], in assay [3] and in assay [4] was below 50% in each case.
Turning to `CC(=O)Nc1cc(-c2c(-c3ccc(F)cc3)nc(Sc3cccc(I)n3)n2C2CCCCC2)ccn1`, the inhibition in assay [1], in assay [2], in assay [3] and in assay [4] was below 50% each time.
On to `CC(=O)Nc1cc(-c2c(-c3ccc(F)cc3)nc(S/C=C\C(=O)O)n2C2CCCCC2)ccn1`, for which the inhibition in assay [1], in assay [2], in assay [3] and in assay [4] was below 50% in each case.
